In patent publication US7176320B2, “Benzimidazole derivative” (Teijin Limited, priority 2000, dated 2007):

Experiments:
[1] = biological target: T1, recombinant human mast cell chymase (Homo sapiens, UniProt P23946); assay: Measurement of inhibition of enzyme activity of recombinant human mast cell chymase; type: biochemical; conditions: active human mast cell chymase, substrate succinyl-alanyl-histidyl-prolyl-phenylalanylparanitroanilide, 5 minutes at room temperature, absorbance 405 nm; read-out: inhibitory activity IC50
T1 construct: made in house; host or cells: insect cells (Th5) infected with recombinant baculovirus
T1 sequence (P23946 22-247): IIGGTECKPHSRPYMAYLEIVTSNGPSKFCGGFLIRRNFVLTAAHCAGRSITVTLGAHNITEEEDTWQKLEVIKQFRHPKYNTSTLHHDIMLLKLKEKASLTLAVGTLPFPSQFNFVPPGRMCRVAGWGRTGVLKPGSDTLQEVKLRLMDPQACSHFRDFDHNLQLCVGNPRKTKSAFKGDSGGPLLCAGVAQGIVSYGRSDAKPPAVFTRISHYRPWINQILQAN
Method: Recombinant human mast cell chymase was prepared in accordance with the report of Urata, et al. (Journal of Biological Chemistry, Vol. 266, p. 17173 (1991)). Namely, human mast cell chymase was purified by heparin sepharose (Pharmacia) from a culture supernatant of insect cells (Th5) infected with recombinant baculovirus containing cDNA coding for human mast cell chymase. Moreover, after activating in accordance with the report of Murakami, et al. (Journal of Biological Chemistry, Vol. 270, p. 2218 (1995)), the human mast cell chymase was purified with heparin sepharose to obtain active human mast cell chymase.
After adding 2 μl of DMSO solution containing a compound of the present invention to 50 μl of Buffer A (0.5–3.0 M NaCl, 50 mM Tris-HCl, pH 8.0) containing 1–5 ng of the active human mast cell chymase obtained in Example 16, 50 μl of Buffer A containing 0.5 mM succinyl-alanyl-histidyl-prolyl-phenylalanylparanitroanilide (Bacchem) as substrate were added and allowed to react for 5 minutes at room temperature. The changes over time in absorbance at 405 nm were measured to investigate inhibitory activity.

[2] = In vitro metabolism test using liver microsomes (Ms); type: in vitro ADME; conditions: liver microsomes 1.0 mg/mL, substrate 5.0 μM, NADPH 1.0 mM, 37° C.; for MR (metabolic rate at its maximum): pH 7.4
Method: The metabolic rate was determined from the decrease in the amount of the unchanged form at each reaction time and the reaction time based on assigning a value of 100% to the amount of the unchanged form at the initial concentration (reaction time: 0 minutes), and the metabolic rate at the time the metabolic rate reached a maximum was evaluated as the MR value. M=(substrate concentration at reaction time: 0 min.−substrate concentration after reaction)÷reaction time÷protein concentration (nmol/min./mg protein)

[3] = Measurement of blood concentration during administration by intragastric forced feeding to rats; type: in vivo, rat; conditions: male SD rats, fasting, 30 mg/kg, serum
Method: The compounds indicated with the above compound nos. 39, 52 and 244 were administered by intragastric forced feeding to male SD rats while fasting at a dose of 30 mg/kg, after which blood samples were collected immediately after administration and at 30 minutes and 1, 2 and 4 hours after administration. Following collection of blood samples, where samples were immediately separated into serum components, the compound of the present invention was extracted by ordinary solid phase extraction methods, and the resulting samples were analyzed by HPLC using an ODS column (32% acetonitrile-water-0.05% TFA was used for the mobile phase for compound nos. 52 and 244, while 47% acetonitrile-water-10 mM ammonium acetate buffer (pH 4.0) was used for the mobile phase for compound no. 39) followed by measurement of the amount of the unchanged form.

[4] = 30 minutes after administration

| SMILES | IC50 [1] [nM] | Percentage of substrate remaining after 30 min. [2] [%] | MR (metabolic rate at its maximum) [2] [nmol/min./mg protein] | also measured |
| --- | --- | --- | --- | --- |
| O=C(O)CCCSc1nc2ccccc2n1Cc1csc2ccccc12 [Compound No. 52] |  | 47.5 | 0.331 | Blood concentration of the unchanged form After 30 min. [3, 4]: 60500 ng/mL; Blood concentration of the unchanged form After 4 hr. ([3]; 4 hours after administration): 12700 ng/mL |
| Cc1ccc2scc(Cn3c(SCCCC(=O)O)nc4ccccc43)c2c1 [Compound No. 56] |  | 41.2 | 0.111 |  |
| COc1ccc2c(c1)nc(SCCCC(=O)O)n2Cc1csc2ccc(C)cc12 [Compound No. 152, 4-(1-((5-methylbenzothiophene-3-yl)methyl)-5-methoxybenzimidazole-2-ylthio)butanoic acid] | 10 to 100 |  |  |  |
| N#Cc1ccc2c(c1)nc(SCCCC(=O)O)n2Cc1csc2ccccc12 [Compound No. 244] |  | 57.9 | 0.211 | Blood concentration of the unchanged form After 30 min. [3, 4]: 16500 ng/mL; Blood concentration of the unchanged form After 4 hr. ([3]; 4 hours after administration): 8900 ng/mL |
| Cc1ccc2nc(SCCCC(=O)O)n(Cc3csc4ccccc34)c2c1 [Compound No. 436] | 10 to 100 |  |  |  |
| Cc1cc2nc(SCCCC(=O)O)n(Cc3cn(C)c4ccccc34)c2cc1C [compound 514] |  | 48.7 | 0.087 |  |
| Cc1ccc2scc(Cn3c(SCCCC(=O)O)nc4cc(C)c(C)cc43)c2c1 [compound 536] |  | 56.3 | 0.131 |  |
| O=C(O)CCCSc1nc2cc(Cl)c(Cl)cc2n1Cc1csc2ccccc12 [compound 628] | 10 to 100 |  |  |  |

Second part, led by results:

| IC50 [1] [nM] | Percentage of substrate remaining after 30 min. [2] [%] | MR (metabolic rate at its maximum) [2] [nmol/min./mg protein] | SMILES | also measured |
| --- | --- | --- | --- | --- |
| 10 to 100 | 60.3 | 0.260 | Cn1cc(Cn2c(SCCCC(=O)O)nc3ccccc32)c2ccccc21 [Compound No. 34, 4-(1-((1-methylindole-3-yl)methyl)benzimidazole-2-ylthio)butanoic acid] |  |
| 1 to 10 | 80.1 | 0 | Cc1cccc2c1c(Cn1c(SCCCC(=O)O)nc3ccccc31)cn2C [Compound No. 39] | concentration at 30 min ([3]; rat, oral, 30 minutes after administration, read-out: Blood concentration of the unchanged form After 30 min.): 16100 ng/mL; concentration at 4 h ([3]; rat, oral, 4 hours after administration, read-out: Blood concentration of the unchanged form After 4 hr.): 6300 ng/mL |
| 10 to 100 | 55.2 | 0.097 | COc1ccc2c(c1)nc(SCCCC(=O)O)n2Cc1cn(C)c2cccc(C)c12 [Compound No. 135] |  |
| 1 to 10 |  |  | COc1ccc2c(c1)nc(SCCCC(=O)O)n2Cc1csc2ccccc12 [Compound No. 148, 4-(1-((benzothiophene-3-yl)methyl)-5-methoxybenzimidazole-2-ylthio)butanoic acid] |  |
| 1 to 10 |  |  | COc1ccc2c(c1)nc(SCCCC(=O)O)n2Cc1csc2cccc(C)c12 [Compound No. 154, 4-(1-((4-methylbenzothiophene-3-yl)methyl)-5-methoxybenzimidazole-2-ylthio)butanoic acid] |  |
| 1 to 10 | 52.9 | 0.102 | Cc1cc2nc(SCCCC(=O)O)n(Cc3cn(C)c4cccc(C)c34)c2cc1C [Compound No. 519] |  |
| 1 to 10 | 36.2 | 0.277 | Cc1cc2nc(SCCCC(=O)O)n(Cc3csc4ccccc34)c2cc1C [Compound No. 532] |  |
| 1 to 10 |  |  | COc1ccc2nc(SCCCC(=O)O)n(Cc3csc4ccc(C)cc34)c2c1 [Compound No. 1112, 4-(1-((5-methylbenzothiophene-3-yl)methyl)-6-methoxybenzimidazole-2-ylthio)butanoic acid] |  |
| 1 to 10 |  |  | COc1ccc2nc(SCCCC(=O)O)n(Cc3csc4cccc(C)c34)c2c1 [Compound No. 1114, 4-(1-((4-methylbenzothiophene-3-yl)methyl)-6-methoxybenzimidazole-2-ylthio)butanoic acid] |  |
